Results on 1 molecule are retold here after patent EP0406111A1, “Substituted arylamines and heteroarylamines, process for their preparation and pharmaceutical composition containing them” (SOCIETE DE CONSEILS DE […] D'APPLICATIONS SCIENTIFIQUES …, priority 1989, dated 1991).

In test [1] the target is T1, complexe de recapture de la dopamine (Rattus norvegicus, UniProt P23977).
T1 construct: expériences de compétition sur les membranes de striatum préparées comme ci-dessus; from tissue; host or cells: rat striatal membranes
Description: biochemical. It is filed as binding. The note with it: rat striatal membranes, 0,2 nM (3H)BTCP, 90 min at 4°C; read-out: [3H] BTCP IC50. As for the experimental part: Exemple 35 : Affinité des composés pour les sites de liaison de la (³H)BTCP sur les membranes striatales de cerveaux de rats.
Les striata de cerveaux de rats rapidement disséqués dans la glace sont homogénéisés avec un ultra turax pendant 30 s (position 6) dans 50 volumes d'une solution de sucrose 0,32 M tamponnée par du Tris-HCl 10 mM à pH = 7,4. L'homogénat est centrifugé à 4°C à 1000g pendant 10 mln, puis le surnageant obtenu est centrifugé à 40000 g à 4°C pendant 30 min et les culots obtenus sont repris dans 1 ml de tampon par striatum.
L'affinité des composés pour le complexe de recapture de la dopamine est déterminée par des expériences de compétition sur les membranes de striatum préparées comme ci-dessus. Le ligand radioactif utilisé est la (³H)BTCP (Service des Molécules Marquées du CEA, Saclay France) à 55Ci/mmol.
Après 90 min à 4°C, 3 aliquots de 250 µl sont filtrés sous vide sur des filtres de fibre de verre GF/B (Whatman). La liaison non spécifique est obtenue dans des expériences parallè-les réalisées en présence de 10 µM de BTCP non marquée. Elle est soustraite de la liaison totale pour obtenir la liaison spécifique.

The next test deals with souris Swiss. Put plainly: Locomotor activity of mice in the Boissier-Simon actimeter (Example 38). It is filed as in vivo. The note with it: 30 min after administration, beams crossed from 20th to 35th minute. As for the experimental part:
Exemple 38 : Mesure de l'activité locomotrice.
L'activité locomotrice de souris Swiss (mâles CD1, 25-30 g, Charles River, St Aubin lès Elbeuf, France) est mesurée dans l'actimètre Boissier-Simon (Apelex, Bagneux, France).
30 minutes après l'administration des composés à tester (10 mg/kg, i.p.), les souris sont introduites dans des cages individuelles en Plexiglass (L = 26 cm, l = 20 cm, h = 10 cm), équipées de deux cellules photoélectriques situées à 1 cm au-dessus du plancher. Chaque cellule est reliée à un compteur électromécanique. "L'activité locomotrice" correspond au nombre de rayons traversés, de la 20ème à la 35ème minute après introduction dans les cages d'actimétrie.

Test [2] has as its system fixation de la (³H)BTCP dans le striatum de souris. Description: Inhibition of in vivo (3H)BTCP binding in mouse striatum (Example 40). The note with it: mice, compound s.c. 60 min before i.v. (3H)BTCP, sacrifice 30 min later. As for the experimental part: Exemple 40 : Etude de l'inhibition de la fixation "in vivo" de (³H)BTCP chez la souris.
Pour cette étude, on utilise des souris Swiss mâles pesant 20 à 25g. Les souris sont réparties par groupes et alimentées avec de la nourriture standard de laboratoire et de l'eau à volonté, en réalisant des cycles de lumière artificielle de 12h consécutives à partir de 7h du matin. Les expériences sont effectuées entre 10h et 18h. Les mesures de la fixation "in vivo" de la (³H)BTCP sont effectuées comme il a été décrit par Maurice et al, 1989, de la façon suivante.
On injecte aux souris par voie sous-cutanée le composé à tester dans 100µl de solution physiologique pour les composés n^o 4 et n^o 16 et dans 100µl d'un mélange 1:1 en volume de solution physiologique et de DMSO pour le composé n^o 26. 60 min après cette injection on leur injecte dans une veine de la queue (³H)BTCP à une dose de 5µCi dans 100µl d'un mélange de solution physiologique et d'éthanol à 5%. 30min après cette injection, on sacrifie les souris. Les striata de cerveaux sont rapidement disséqués et homogénéisés avec un ultra turrax (IKA Verk) réglage maximum pendant 20s dans 80 volumes d'un tampon Na₂HPO₄, HCl 50mM, pH=7,4 à 4°C. Deux aliquots de […] sont filtrées sous pression réduite sur des filtres GF/B (Whatman) prétraités par de la polyéthylène imine à 0,5% (Aldrich). On rince ensuite les filtres deux fois avec 5ml d'un tampon NaCl 50mM, tris-HCl 10mM, pH=7,4 à 4°C. La radioactivité fixée qui reste sur les filtres, et la radioactivité totale, obtenue à partir des deux aliquots de 200µl d'homogénats sont mesurées dans des flacons de 6ml contenant 3,5ml de ACS (Amersham) avec un spectrophotomètre à scintillation liquide Excel 1410 (LKB). La fixation non spécifique est définie comme la radioactivité présente dans chaque région après prétraitement des animaux avec de la BTCP (40mg/kg dans 100µl de solution saline), injectée par voie sous-cutanée, 60min avant l'injection de (³H)BTCP. Les résultats sont exprimés sous la forme des rapports radioactivité fixée / radioactivité libre (B/F) dans lesquels le taux de (³H)BTCP libre est estimé en soustrayant la radioactivité fixée de la radioactivité totale.

In test [3] the target is T2, capture de (³H)dopamine par les synaptosomes striataux de rat (Rattus norvegicus, UniProt P23977).
T2 construct: Les culots résultants P2 contenant les synaptosomes bruts sont ensuite utilisés sans purification supplémentaire; from tissue; host or cells: Wistar rat striatum, crude synaptosomes (P2 pellet)
Description: biochemical. Particulars: rat striatal synaptosomes, 5 nM (3H)DA, 5 min at 30°C; read-out: [3H] DA IC50. As for the experimental part:
Ce test est pratiqué selon la méthode utilisée par Vignon et Lazdunski en opérant de la façon suivante. Des rats Wistar pesant 200-250g sont tués par dislocation cervicale. Leurs cerveaux sont rapidement prélevés et les striata sont dissé-qués sur la glace. Les striata sont ensuite homogéné-isés (10 allers-retours) avec un homogénéisant Potter dans 50 volumes de tampon Tris HCl 10 mM à pH 7,4 contenant 0,32 M de sucrose. L'homogénat est ensuite centrifugé à 1000g pendant 10min à 4°C, puis le surnageant obtenu est recentrifugé à 10000g pendant 20min à 4°C. Les culots résultants P2 contenant les synaptosomes bruts sont ensuite utilisés sans purification supplémentaire.
On ajoute alors de la dopamine tritiée ((³H)DA, Amersham) à une concentration finale de 5 nM pendant 5 min à 30°C, et on interrompt sa capture par filtration de 150 µl du milieu d'incubation sur des filtres en fibres de verre GF/B (Whatman). La radioactivité retenue par les filtres est mesurée dans un compteur à scintillation liquide (LKB)avec 3 ml d'ACS (Amersham) comme scintillant. La capture non spécifique est mesurée à 4°C dans des incubations parallèles : elle est ensuite sous-traite de la capture totale mesurée à 30°C.
Les composés à tester sont solubilisés au départ dans de l'eau à une concentration de 1mM et les autres concentrations sont obtenues par des dilutions successives de cette solution mère dans l'eau.

T1 sequence (P23977 whole entry, one chain of several): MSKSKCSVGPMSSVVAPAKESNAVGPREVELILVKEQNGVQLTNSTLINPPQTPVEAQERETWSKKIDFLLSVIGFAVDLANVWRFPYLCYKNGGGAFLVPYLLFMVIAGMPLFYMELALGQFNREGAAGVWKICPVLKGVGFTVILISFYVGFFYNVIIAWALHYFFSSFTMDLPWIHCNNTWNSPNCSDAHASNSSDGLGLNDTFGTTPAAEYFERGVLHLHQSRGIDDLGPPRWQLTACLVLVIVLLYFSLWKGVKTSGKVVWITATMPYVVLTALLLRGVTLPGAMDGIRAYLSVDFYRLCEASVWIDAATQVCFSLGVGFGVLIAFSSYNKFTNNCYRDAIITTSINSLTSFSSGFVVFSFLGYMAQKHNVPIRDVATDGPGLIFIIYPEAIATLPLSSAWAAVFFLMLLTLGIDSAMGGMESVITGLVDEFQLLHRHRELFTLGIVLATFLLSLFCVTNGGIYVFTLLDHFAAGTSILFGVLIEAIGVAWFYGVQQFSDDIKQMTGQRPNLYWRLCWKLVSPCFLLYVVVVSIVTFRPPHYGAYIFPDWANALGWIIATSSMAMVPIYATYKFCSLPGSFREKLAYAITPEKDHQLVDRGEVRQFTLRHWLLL
T2 sequence (P23977 whole entry): as the sequence (P23977 whole entry, one chain of several) above

What is called IC50 is the point on the concentration scale where inhibition reaches its midpoint. Turning to `c1ccc2cc(C3(N4CCCCC4)CCCCC3)ccc2c1` [composé n^o 16, (naphtyl-2)-1 (pipéridi-no-1)-1 cyclohexane], the IC50 amounted to 14.8 nM in test [1] and 36.3 nM in test [3]. Further, the “Activité locomotrice Variation (%) par rapport aux témoins (100%) pour la dose 10 mg/kg,i.p.” value in the test with souris Swiss is listed as “+269±57%”. The “ID₅₀ (mg/kg)” value in test [2] was 2,66 mg/kg.
